Measured values: patent publication US20260356841A1, “HETEROCYCLIC PYRIDINONE COMPOUNDS AS TRIGGERING RECEPTOR EXPRESSED ON MYELOID CELLS 2 AGONISTS AND METHODS OF USE” (Vigil Neuroscience, Inc., priority 2023, published 2026)

target: T1, human TREM2 (Homo sapiens, UniProt Q9NZC2); assay: TREM2 agonist potency by cellular phosphorylation of Spleen Tyrosine Kinase (Syk), AlphaLisa, HEK293T-hTREM2 cells; format: cell-based; conditions: not given
T1 construct: expressed in transfected cells; host or cells: HEK293T (HEK293T-hTREM2 cells)
T1 sequence (Q9NZC2 19-230): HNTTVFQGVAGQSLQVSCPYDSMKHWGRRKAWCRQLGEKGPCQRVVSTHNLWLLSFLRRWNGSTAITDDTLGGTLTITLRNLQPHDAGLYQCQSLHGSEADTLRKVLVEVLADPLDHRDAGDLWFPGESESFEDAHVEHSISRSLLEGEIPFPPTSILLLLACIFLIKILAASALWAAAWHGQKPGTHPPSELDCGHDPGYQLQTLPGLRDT
T1 sequence (O43914 22-113 partner): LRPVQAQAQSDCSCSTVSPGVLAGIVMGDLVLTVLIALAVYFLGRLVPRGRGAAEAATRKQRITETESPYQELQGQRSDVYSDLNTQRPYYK
Procedure, shortened: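 HEK293T cells co-expressing human TREM2 and DAP12, plated 20–24 h before use. Compounds applied 45 min at room temperature in assay buffer, then cells lysed and phospho-Syk quantified by AlphaLisa. Percent activation from a standard curve; EC50 from a four-parameter variable-slope fit.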

Row | EC50 | Compound
1 | < 0.1 µM | Cc1nc2nc(N3C[C@@H](C)O[C@@H](c4ccc(=O)n(C)c4)C3)nc(-c3ccc(C(F)(F)F)cc3F)c2nc1C [Example 7, 5-[(2S,6R)-4-[4-[2-fluoro-4-(trifluoromethyl)phenyl]-6,7-dimethyl-pteridin-2-yl]-6-methyl-morpholin-2-yl]-1-methyl-pyridin-2-one]

same assay, conditions: hTREM2 EC50 Data (HEK293 Cells); Syk phosphorylation, AlphaLisa; read-out: hTREM2 EC50

Row | Compound | EC50
2 | Cc1nc2nc([C@H]3CCO[C@H](c4ccc(=O)n(C)c4)C3)cc(C34CC(C(F)(F)F)(C3)C4)c2nc1C [Example 170, 1-methyl-5-[(2S,4S)-4-[2,3-dimethyl-8-[3-(trifluoromethyl)-1-bicyclo[1.1.1]pentanyl]pyrido[2,3-b]pyrazin-6-yl]tetrahydropyran-2-yl]pyridin-2-one] | 0.1 to 0.5 µM
3 | Cc1nc2nc([C@@H]3CCO[C@H](c4ccc(=O)n(C(C)C)c4)C3)nc(-c3ccc(C(F)(F)F)cc3F)c2nc1C [Example 69, 1-isopropyl-5-[(2S,4R)-4-[4-[2-fluoro-4-(trifluoromethyl)-phenyl]-6,7-dimethyl-pteridin-2-yl]tetrahydropyran-2-yl]pyridin-2-one] | < 0.1 µM
4 | [2H]C([2H])([2H])c1nc2nc(C3CCOC(c4ccc(=O)n(C([2H])([2H])[2H])c4)C3)nc(C34CC(C(F)(F)F)(C3)C4)c2nc1C([2H])([2H])[2H] (centres unmarked) [Example 353] | < 0.1 µM
5 | Cc1cnc2c(C34CC(C(F)(F)F)(C3)C4)nc([C@@H]3CCO[C@H](c4ccc(=O)n(C)c4)C3)nc2n1 [Example 124, 1-methyl-5-((2S,4R)-4-(7-methyl-4-(3-(trifluoromethyl)bicyclo[1.1.1]pentan-1-yl)pteridin-2-yl)tetrahydro-2H-pyran-2-yl)pyridin-2(1H)-one] | 0.1 to 0.5 µM
6 | C=CCNn1cc([C@H]2C[C@@H](c3nc(C45CC(C(F)(F)F)(C4)C5)c4nc(C)c(C)nc4n3)CCO2)ccc1=O [Example 207, 1-(allylamino)-5-[(2R,4S)-4-[6,7-dimethyl-4-[3-(trifluoromethyl)-1-bicyclo[1.1.1]pentanyl]pteridin-2-yl]tetrahydropyran-2-yl]pyridin-2-one] | < 0.1 µM
7 | CN(C)c1nc2nc([C@H]3CCO[C@@H](c4ccc(=O)n(C)c4)C3)nc(-c3ccc(F)cc3F)c2s1 [Example 13, 5-[(2R,4S)-4-[7-(2,4-difluorophenyl)-2-(dimethylamino)thiazolo[4,5-d]pyrimidin-5-yl]tetrahydropyran-2-yl]-1-methyl-pyridin-2-one] | 0.1 to 0.5 µM
8 | COn1cc([C@H]2C[C@@H](c3nc(C45CC(C(F)(F)F)(C4)C5)c4nc(C)c(C)nc4n3)CCO2)ccc1=O [Example 203, 5-[(2R,4S)-4-[6,7-dimethyl-4-[3-(trifluoromethyl)-1-bicyclo[1.1.1]pentanyl]pteridin-2-yl]tetrahydropyran-2-yl]-1-methoxy-pyridin-2-one] | < 0.1 µM
9 | CCNn1cc([C@H]2C[C@@H](c3nc(C45CC(C(F)(F)F)(C4)C5)c4nc(C)c(C)nc4n3)CCO2)ccc1=O [Example 181, 5-[(2R,4S)-4-[6,7-dimethyl-4-[3-(trifluoromethyl)-1-bicyclo[1.1.1]pentanyl]pteridin-2-yl]tetrahydropyran-2-yl]-1-(ethylamino)pyridin-2-one] | < 0.1 µM
10 | Cc1nc2nc([C@@H]3CCO[C@H](c4ccc(=O)n(C)c4)C3)nc(C34CC(C(F)F)(C3)C4)c2nc1C [Example 32, 5-[(2S,4R)-4-[4-[3-(difluoromethyl)-1-bicyclo[1.1.1]-pentanyl]-6,7-dimethyl-pteridin-2-yl]tetrahydropyran-2-yl]-1-methyl-pyridin-2-one] | 0.1 to 0.5 µM

Second part, the molecule after the results:

Row | EC50 | Compound
11 | < 0.1 µM | Cc1nc2nc([C@@H]3CCO[C@H](c4ccc(=O)n(CC(F)F)c4)C3)nc(C34CC(C(F)(F)F)(C3)C4)c2nc1C [Example 72, 1-(2,2-difluoroethyl)-5-[(2S,4R)-4-[6,7-dimethyl-4-[3-(trifluoro-methyl)-1-bicyclo-[1.1.1]pentanyl]-pteridin-2-yl]tetrahydropyran-2-yl]pyridin-2-one]
12 | < 0.1 µM | Cc1cc2c(-c3ccc(F)cc3F)nc(N3C[C@@H](C)O[C@@H](c4ccc(=O)n(N)c4)C3)cc2nc1C [Example 193, 1-amino-5-[(2S,6R)-4-[5-(2,4-difluorophenyl)-2,3-dimethyl-1,6-naphthyridin-7-yl]-6-methyl-morpholin-2-yl]pyridin-2-one]
13 | < 0.1 µM | Cc1nc2nc([C@H]3CCO[C@@H](c4ccc(=O)n(CC5(C#N)CC5)c4)C3)nc(C34CC(C(F)(F)F)(C3)C4)c2nc1C [Example 98, 1-[[5-[(2R,4S)-4-[6,7-dimethyl-4-[3-(trifluoromethyl)-1-bicyclo[1.1.1]pentanyl]pteridin-2-yl]tetrahydropyran-2-yl]-2-oxo-1-pyridyl]methyl]cyclopropanecarbonitrile]
14 | < 0.1 µM | Cc1nc2nc([C@H]3CCO[C@@H](c4ccc(=O)n(C5CC5)c4)C3)nc(C34CC(C(F)(F)F)(C3)C4)c2nc1C [Example 74, 1-cyclopropyl-5-[(2R,4S)-4-[6,7-dimethyl-4-[3-(trifluoromethyl)-1-bicyclo[1.1.1]pentanyl]pteridin-2-yl]tetrahydropyran-2-yl]pyridin-2-one]
15 | 0.1 to 0.5 µM | Cc1nc2nc([C@@H]3CCO[C@H](c4ccc(=O)n(C)c4)C3)nc(C3CCC(F)(F)CC3)c2nc1C [Example 29, 5-((2S,4R)-4-(4-(4,4-difluorocyclohexyl)-6,7-dimethylpteridin-2-yl)tetrahydro-2H-pyran-2-yl)-1-methylpyridin-2 (1H)-one]
16 | < 0.1 µM | Cc1nc2nc([C@H]3CCO[C@@H](c4ccc(=O)[nH]c4)C3)nc(C34CC(C(F)(F)F)(C3)C4)c2nc1C [Example 34, 5-[(2R,4S)-4-[6,7-dimethyl-4-[3-(trifluoromethyl)-1-bicyclo[1.1.1]pentanyl]pteridin-2-yl]tetrahydropyran-2-yl]-1H-pyridin-2-one]
17 | < 0.1 µM | Cc1nc2nc([C@@H]3CCO[C@H](c4ccc(=O)n(C)c4)C3)nc(-c3ccc(C(F)(F)F)cc3F)c2nc1C(F)F [Example 127, 5-[(2S,4R)-4-[6-(difluoromethyl)-4-[2-fluoro-4-(trifluoromethyl)phenyl]-7-methyl-pteridin-2-yl]tetrahydropyran-2-yl]-1-methyl-pyridin-2-one]
18 | < 0.1 µM | Cc1nc2nc([C@H]3CCO[C@@H](c4ccc(=O)n(C)c4)C3)nc(C34CC(CC(F)F)(C3)C4)c2nc1C [Example 46, 5-[(2R,4S)-4-[4-[3-(2,2-difluoroethyl)-1-bicyclo[1.1.1]pentanyl]-6,7-dimethyl-pteridin-2-yl]tetrahydropyran-2-yl]-1-methyl-pyridin-2-one]
19 | < 0.1 µM | Cc1cnc2c(C34CC(C(F)(F)F)(C3)C4)nc([C@H]3CCO[C@@H](c4ccc(=O)n(C)c4)C3)nc2n1 [Example 123, 1-methyl-5-((2R,4S)-4-(7-methyl-4-(3-(trifluoromethyl)bicyclo-[1.1.1]pentan-1-yl)pteridin-2-yl)tetrahydro-2H-pyran-2-yl)pyridin-2(1H)-one]
20 | 0.1 to 0.5 µM | Cc1cnc2nc([C@H]3CCO[C@@H](c4ccc(=O)n(C)c4)C3)nc(C34CC(C(F)(F)F)(C3)C4)c2n1 [Example 198, 1-methyl-5-((2R,4S)-4-(6-methyl-4-(3-(trifluoromethyl)bicyclo[1.1.1]pentan-1-yl)pteridin-2-yl)tetrahydro-2H-pyran-2-yl)pyridin-2(1H)-one]
